According to patent US20040214803A1, “Use of vitamin d3 analogue for the treatment of autoimmune diabetes” (priority 2001, published 2004):

Legend:
NOD mice = assay: Type 1 DM development in NOD mice (blood glucose monitoring); assay type: in vivo, mouse; conditions: NOD female mice, 0.03 μg/Kg per os
Description: The non-obese (NOD)/Lt mice used for the experiments were purchased from Charles River Laboratories (Calco, Italy). All mice were kept under specific pathogen-free conditions. Glucose levels in the tail venous blood were quantified using a EUROFlash (Lifescan, Issy les Moulineaux, France). A diagnosis of diabetes was after two sequential glucose measurements higher than 200 mg/dl.
1,25-dihydroxy-16,23Z-diene-26,27-hexafluoro-19-nor vitamin D3, was dissolved in ethanol (1 mg/ml) and then diluted in miglyol 812. NOD/Lt. The mice were dosed orally with vehicle (miglyol 812) alone or vehicle containing Compound A (0,03 μg/Kg body weight) 5×/week from 8 to 12 or from 8 to 16 weeks of age.
NOD female mice were treated […] with Compound A (0.03 μg/Kg body weight per os) or vehicle from 8 to 12 or 16 weeks of age and glycemia levels were monitored until 38 weeks of age. […] About 90% of vehicle-treated controls were diabetic by 38 weeks of age compared to only 50% of mice treated with Compound A from 8 to 12 weeks of age. A longer treatment, from 8 to 16 weeks of age, afforded higher protection, and only 16% of NOD mice developed type 1 DM.
FIG. 1. (page 1/9) Compound A administration to 8-week-old NOD mice inhibits type 1 DM development. NOD mice were treated 5×/week with vehicle (open circles) or with 0.03 μg/Kg Compound A p.o. (filled circles) from 8 to 16 weeks of age, or from 8 to 12 weeks of age (filled squares). Type 1 DM development was monitored twice weekly by measurement of blood glucose levels. The P values were calculated by Mann-Whitney U test.

[1] = tested on: vascularized heart allograft; assay: Vascularized heart allograft survival, C57BL/6 into BALB/c recipients; assay type: in vivo, mouse
Source text: Fully vascularized hearts were grafted into the abdomen of recipient mice as described (Corry, R. J., H. J. Winn, and P. S. Russell. Primarily vascularized allografts of hearts in mice. The role of H-2D, H-2K, and non-H-2 antigens in rejection. Transplantation. 1973, 16:343). Graft survival was monitored by palpation and rejection was confirmed by direct graft inspection.

[2] = Serum calcium levels after Compound A treatment; assay type: in vivo, mouse; conditions: 0.03 μg/Kg per os daily for 4 days before LPS injection, NOD mice
Description: In this experiment the capacity of Compound A to inhibit LPS-induced IL-12 and IFN-γ production in vivo is tested. Mice were pre-treated with vehicle or with 0.03 μg/Kg Compound A administered per os daily for 4 days before LPS injection.
FIG. 3. […] Compound A (0.03 μg/Kg) was administered orally in miglyol to NOD mice 72, 48, 24 and 1 h before LPS injection. IFN-γ, IL-12p75 and serum calcium levels were quantified 3 h post LPS injection. Bars represent the mean ±SE of 10 mice/group. The P values were calculated by Mann-Whitney U test (* indicates P<0.05 vs. vehicle-treated NOD mice).

aortic allografts = assay: Aortic allograft chronic rejection: intimal thickening / luminal reduction; assay type: in vivo, mouse; conditions: 0.03 μg/kg p.o. five times per week day 0 to day 30; grafts analysed 60 days after transplantation; vehicle >60%
Description: Mice: BALB/c and C57BL/6 (B6) male mice, weighing 22-24 g, were purchased from Charles River Laboratories (Calco, Italy), and kept under specific pathogen-free conditions. B6 (H-2^b) mice were used as donors and BALB/c (H-2^d) as recipients of aortic allografts.
Aorta transplantation: The entire procedure was performed according to Koulack et al. Development of a mouse aortic transplant model of chronic rejection Microsurgery 1995; 16: 110-3, with the modification described by Hong et al. Improved surgical technique for the establishment of a murine model of aortic transplantation. Microsurgery 1998; 18: 368-71. […]
Determination of luminal reduction: Luminal reduction was assessed in 5 μm-thick frozen transverse aortic sections stained with hematoxylin and eosin obtained 60 days post transplantation. To quantify morphological changes in the graft, we used a Leica DC camera (Leica IM 1000 image manager) to acquire the image, and the Leica Qwin software to calculate the luminal reduction percentage. […]
Statistical analysis: Numerical data are expressed as mean ±SD. Data on percent luminal reduction were analysed by a non parametric Students's t-test.
The effect of Compound A in preventing chronic rejection was evaluated using the aortic graft model in the mouse. […] Aortic grafts were analyzed 60 days after transplantation.

IL-12p75 = assay: LPS-induced IL-12 production in vivo (serum ELISA); design: species or system mouse
Description: Lymphokine production was induced in 8 week-old female NOD mice by i.p. injection of 400 μg/mouse Salmonella abortus equi LPS (Sigma). Compound A was administered 72, 48, 24, and 1 h prior to LPS. Blood samples were collected 3 h post LPS injection and serum cytokines measured by ELISA.
Cytokines were quantified by two-sites ELISA. IFN-γ was determined using paired mAb from PharMingen (San Diego, Calif.). For capture, the mAb was AN-18.17.24. Samples were titrated and incubated overnight at 4° C. To detect bound IFN-γ plates were then incubated with biotinylated XMG1.2 mAb. […] The plates were washed again and incubated with the developing substrate p-nitrophenylphosphate disodium (Sigma) in diethanolamine buffer (pH 9.6; 100 μl/well). The reaction was stopped by adding 50 μl/well NaOH 3N, and absorbance was read at 405 nm. ELISA for IL-12p75 was performed as described (Gately, M. K., et al., Current Protocols Immunol. 1995, 3, 15:6.16.11-16.16.15). Cytokines were quantified from two to three titration points using standard curves generated by purified recombinant mouse cytokines and results expressed as cytokine concentration in ng or pg/ml. Detection limits were 15 pg/ml for both cytokines. […]
FIG. 3. […] IFN-γ, IL-12p75 and serum calcium levels were quantified 3 h post LPS injection. […] The P values were calculated by Mann-Whitney U test (* indicates P<0.05 vs. vehicle-treated NOD mice).

C[C@H](C/C=C\C(O)(C(F)(F)F)C(F)(F)F)C1=CC[C@H]2/C(=C/C=C3C[C@@H](O)C[C@H](O)C3)CCC[C@]12C [Compound A, 1,25-dihydroxy-16,23Z-diene-26,27-hexafluoro-19-nor vitamin D3]
incidence of disease compared to controls (NOD mice; from 8 to 12 or 16 weeks of age): significantly lower | diabetic by 38 weeks of age (NOD mice; treated from 8 to 12 weeks of age, vehicle controls about 90%): 50% | developed type 1 DM (by 38 weeks of age) (NOD mice; treated from 8 to 16 weeks of age, vehicle controls about 90%): 16% | Graft survival (days) Mean ([1]; 0.01 μg/kg po (d-1, 0, +1) then 0.003 μg/kg po (d+2 until d+30)): 12.00 days | Graft survival (days) Mean ([1]; 0.1 μg/kg po (d-1, 0, +1) then 0.03 μg/kg (d+2 until d 15)): 38.20 days | hypercalcemia (serum calcium levels) [2]: did not induce hypercalcemia | intimal thickening (aortic allografts): < 20% | LPS-induced IL-12p75 production (IL-12p75; 0.03 μg/Kg per os 72, 48, 24, 1 h before LPS, serum 3 h post LPS): inhibited significantly | potency in inhibiting LPS-induced IL-12p75 and IFN-γ production relative to 1,25(OH)2D3 (IL-12p75; higher than 1,25(OH)2D3 (literature comparison)): about 100 fold
